Measured values: US20060173064A1, “(-)-1-(3,4-Dichlorophenyl)-3-azabi cyclo[3.1.0]hexane, compositions thereof, and uses for treating alcohol-related disorders” (priority 2001, published 2006)
Marks after values point to notes of the source that are not given here.

Tests used:
[1] = target: norepinephrine transporter (norepinephrine uptake site), rat forebrain membranes (Rattus norvegicus, UniProt Q63380); details: Table 2; hydrochloride
Description: The norepinephrine transporter binding assay was performed according to the methods described in Raisman et al., 1982, Eur. J. Pharmacol. 78:345-351 and Langer et al., 1981, Eur. J. Pharmacol. 72:423. […] Reactions were carried out in 50 mM TRIS-HCI (pH 7.4), containing 300 mM NaCl and 50 mM KCl and at 0° C. to 4° C. for four hours. The reaction was terminated by rapid vacuum filtration onto glass fiber filters. Radioactivity trapped in the filters was determined and compared to control values in order to ascertain the interactions of the test compound with the norepinephrine uptake site.

[2] = target: T1, serotonin transporter (serotonin uptake site), human platelet membranes (Homo sapiens, UniProt P31645); assay: Serotonin transporter binding assay ([3H]citalopram); details: summary of Table 3; hydrochloride
T1 construct: The receptor source was human platelet membranes; from tissue; host or cells: human platelets (membranes)
T1 sequence (P31645 whole entry): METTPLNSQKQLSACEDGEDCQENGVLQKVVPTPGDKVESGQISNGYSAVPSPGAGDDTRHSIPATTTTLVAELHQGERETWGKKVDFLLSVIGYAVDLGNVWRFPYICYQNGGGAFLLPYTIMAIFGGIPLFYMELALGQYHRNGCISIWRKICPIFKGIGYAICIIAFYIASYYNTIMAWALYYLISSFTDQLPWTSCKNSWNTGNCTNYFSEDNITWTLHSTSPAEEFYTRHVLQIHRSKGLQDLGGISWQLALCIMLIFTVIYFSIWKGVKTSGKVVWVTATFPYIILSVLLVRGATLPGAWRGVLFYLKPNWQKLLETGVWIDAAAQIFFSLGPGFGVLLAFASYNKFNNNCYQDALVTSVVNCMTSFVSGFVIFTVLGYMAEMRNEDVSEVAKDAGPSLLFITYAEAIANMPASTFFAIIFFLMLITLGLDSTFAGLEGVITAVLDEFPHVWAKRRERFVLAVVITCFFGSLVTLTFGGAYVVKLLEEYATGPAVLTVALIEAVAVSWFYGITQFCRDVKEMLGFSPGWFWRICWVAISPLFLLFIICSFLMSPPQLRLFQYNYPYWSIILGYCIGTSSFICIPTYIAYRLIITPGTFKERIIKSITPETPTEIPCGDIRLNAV
Description: Reactions were carried out in 50 mM TRIS-HCl (pH 7.4), containing 120 mM NaCl and 5 mM KCl and at 25° C. for one hour. The reaction was terminated by rapid vacuum filtration onto glass fiber filters. Radioactivity trapped in the filters was determined and compared to control values in order to ascertain the interactions of the test compound with the serotonin uptake site.

[3] = target: T2, dopamine transporter (dopamine uptake site), guinea pig striatal membranes (Cavia porcellus, UniProt H0WCX4); assay: Dopamine transporter binding assay ([3H]WIN 35,428); details: summary of Table 1
T2 construct: The receptor source was guinea pig striatal membranes; from tissue; host or cells: guinea pig striatum (membranes)
T2 sequence (H0WCX4 1-619): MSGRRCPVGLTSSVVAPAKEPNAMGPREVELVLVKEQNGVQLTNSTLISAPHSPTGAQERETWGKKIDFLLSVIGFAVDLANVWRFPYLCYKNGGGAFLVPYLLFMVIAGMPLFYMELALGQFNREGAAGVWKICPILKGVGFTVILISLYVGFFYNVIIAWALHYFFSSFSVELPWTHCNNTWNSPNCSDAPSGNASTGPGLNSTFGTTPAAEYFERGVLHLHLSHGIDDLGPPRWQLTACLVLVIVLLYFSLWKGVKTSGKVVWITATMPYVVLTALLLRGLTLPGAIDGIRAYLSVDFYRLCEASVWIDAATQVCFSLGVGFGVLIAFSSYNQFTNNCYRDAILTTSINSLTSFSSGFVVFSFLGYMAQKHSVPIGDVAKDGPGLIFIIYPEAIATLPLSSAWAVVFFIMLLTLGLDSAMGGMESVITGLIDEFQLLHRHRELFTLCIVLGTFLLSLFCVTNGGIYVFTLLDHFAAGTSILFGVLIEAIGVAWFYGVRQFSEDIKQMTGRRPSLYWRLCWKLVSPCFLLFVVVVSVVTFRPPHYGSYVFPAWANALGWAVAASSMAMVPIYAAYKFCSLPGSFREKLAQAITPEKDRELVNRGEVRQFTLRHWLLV
Description: The dopamine uptake transporter binding assay was performed according to the methods described in Madras et al., 1989, Mol. Pharmacol. 36(4):518-524 and Javitch et al., 1984, Mol. Pharmacol. 26(1):35-44. […] Reactions were carried out in 50 mM TRIS-HCI (pH 7.4), containing 120 mM NaCl and at 0° C. to 4° C. for two hours. The reaction was terminated by rapid vacuum filtration onto glass fiber filters. Radioactivity trapped in the filters was determined and compared to control values in order to ascertain the interactions of the test compound with the dopamine uptake site.

[4] = target: hSERT (recombinant human serotonin transporter) (Homo sapiens, UniProt P31645); assay: Inhibition of [3H]5-HT uptake in HEK-hSERT cells; details: (−)-enantiomer versus the racemate
Chain of hSERT (recombinant human serotonin transporter) (P31645 whole entry): as the sequence (P31645 whole entry) above

male mHEP rat = assay: Volitional consumption of ethanol in the HEP (high ethanol preferring) rat; type: in vivo; details: for Ethanol Consumption, Mean ± s.e.m., pre-: three-day pre-treatment period (baseline); for Ethanol Consumption, Mean ± s.e.m., pre- / Ethanol Consumption, Mean ± s.e.m., during / Ethanol Consumption, Mean ± s.e.m., post-: male mHEP rat; for Ethanol Consumption, Mean ± s.e.m., during: during three days of injections; for Ethanol Consumption, Mean ± s.e.m., post-: three-day post-treatment period
Description: (§1) The study described here was performed using procedures modified from previous reports (Myers R D et al., Genetics of alcoholism: Rapid development of a new high ethanol preferring (HEP) strain of female and male rats, Alcohol 16:343-357, 1998; […] et al., Effects of NMDA glutamate receptor antagonist drugs on the consumption of ethanol by a genetic drinking rat, Brain Res. Bull 64:279-284, 2004). Briefly, subject male rats were taken from the selectively bred Myers' high ethanol preferring (MHEP) line (Myers et al., Alcohol 16:343-357, 1998), which drink copious amounts of ethanol, even in the presence of palatable alternatives. These rats were subjected to an ethanol preference selection protocol, 3% to 30% during a 10-day “step up” procedure that ensures the maximum amount of drinking at each rat's desired ethanol concentration, with the proportion of ethanol to total fluid consumption of approximately 50%. After the rats were selected and drinking a fixed concentration of ethanol, they were subjected to a three-day baseline ethanol consumption period. This was followed by a three-day period of test drug administration (IP), then a three-day post-treatment period. During this entire study, the following parameters were measured on a daily basis: volume of water consumed; volume of ethanol solution consumed; weight of food consumed; and rat body weight. […] Doses were calculated as the free base form of each drug. Once drinking stabilized to baseline levels post-treatment, a different dose of drug was administered. […] The order of drug doses or vehicle (0.9% saline) was set up in a counter-balanced design. The data were averaged for each period for each rat then grouped and analyzed by one-way repeated measures ANOVA and Tukey's post-hoc analysis.

[5] = Body weight of the mHEP rat in the ethanol study; type: in vivo; details: for Bodyweight, Mean ± s.e.m., pre-: three-day pre-treatment period (baseline); for Bodyweight, Mean ± s.e.m., pre- / Bodyweight, Mean ± s.e.m., during / Bodyweight, Mean ± s.e.m., post-: male mHEP rat; for Bodyweight, Mean ± s.e.m., during: during three days of injections; for Bodyweight, Mean ± s.e.m., post-: three-day post-treatment period
Description: as §1

Chain of norepinephrine transporter (norepinephrine uptake site), rat forebrain membranes (Q63380 1-617): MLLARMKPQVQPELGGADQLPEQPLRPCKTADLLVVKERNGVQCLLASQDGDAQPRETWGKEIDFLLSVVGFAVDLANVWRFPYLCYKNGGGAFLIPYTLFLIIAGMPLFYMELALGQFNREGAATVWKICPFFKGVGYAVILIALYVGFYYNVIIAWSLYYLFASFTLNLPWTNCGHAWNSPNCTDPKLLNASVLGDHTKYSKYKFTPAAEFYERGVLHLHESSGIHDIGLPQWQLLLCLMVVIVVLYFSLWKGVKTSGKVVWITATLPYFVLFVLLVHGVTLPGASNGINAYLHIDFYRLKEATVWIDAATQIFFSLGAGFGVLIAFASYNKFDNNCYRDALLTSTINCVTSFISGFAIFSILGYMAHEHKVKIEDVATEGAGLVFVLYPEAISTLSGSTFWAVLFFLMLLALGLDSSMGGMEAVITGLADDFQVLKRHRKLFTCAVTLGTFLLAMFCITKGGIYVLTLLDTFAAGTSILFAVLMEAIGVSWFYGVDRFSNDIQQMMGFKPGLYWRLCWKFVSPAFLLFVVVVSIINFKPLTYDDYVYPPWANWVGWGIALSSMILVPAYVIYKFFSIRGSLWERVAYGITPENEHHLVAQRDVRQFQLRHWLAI

Cl.Clc1ccc([C@@]23CNC[C@@H]2C3)cc1Cl (single isomer, unassigned) [(+)-1-(3,4-dichlorophenyl)-3-azabicyclo[3.1.0]hexane HCl] [(+)-1-(3,4-dichlorophenyl)-3-azabicyclo[3.1.0]hexane hydrochloride, reference compound]
affinity for the norepinephrine uptake site (in words) [1]: has affinity
affinity for the serotonin uptake site (in words) [2]: has affinity

Cl.Clc1ccc([C@@]23CNC[C@@H]2C3)cc1Cl (single isomer, unassigned) [(+)-1-(3,4-dichlorophenyl)-3-azabicyclo[3.1.0]hexane hydrochloride, reference compound]
affinity for the dopamine uptake site (in words) [3]: have affinity

Cl.Clc1ccc([C@@]23CNC[C@@H]2C3)cc1Cl (single isomer, unassigned) [(−)-1-(3,4-dichlorophenyl)-3-azabicyclo[3.1.0]hexane HCl] [(−)-1-(3,4-dichlorophenyl)-3-azabicyclo[3.1.0]hexane hydrochloride]
affinity for the norepinephrine uptake site (in words) [1]: no measurable affinity
difference in affinity, uptake at the serotonin transporter [4]: 9.6 fold
affinity for the serotonin uptake site (in words) [2]: no measurable affinity

Cl.Clc1ccc([C@@]23CNC[C@@H]2C3)cc1Cl (single isomer, unassigned) [(−)-1-(3,4-dichlorophenyl)-3-azabicyclo[3.1.0]hexane hydrochloride]
affinity for the dopamine uptake site (in words) [3]: have affinity
Ethanol Consumption, Mean ± s.e.m., pre- (male mHEP rat; 2.5 mg/kg b.i.d. IP group): 5.39 ± 0.89 g ethanol/kg/day
Ethanol Consumption, Mean ± s.e.m., during (male mHEP rat; 2.5 mg/kg b.i.d. IP): 4.32 ± 0.69 g ethanol/kg/day
Ethanol Consumption, Mean ± s.e.m., post- (male mHEP rat; 2.5 mg/kg b.i.d. IP): 5.79 ± 0.86^a g ethanol/kg/day
Ethanol Consumption, Mean ± s.e.m., pre- (male mHEP rat; 5.0 mg/kg b.i.d. IP group): 6.00 ± 0.59 g ethanol/kg/day
Ethanol Consumption, Mean ± s.e.m., during (male mHEP rat; 5.0 mg/kg b.i.d. IP): 4.33 ± 0.62 g ethanol/kg/day
Ethanol Consumption, Mean ± s.e.m., post- (male mHEP rat; 5.0 mg/kg b.i.d. IP): 5.66 ± 0.64 g ethanol/kg/day
Ethanol Consumption, Mean ± s.e.m., pre- (male mHEP rat; 10.0 mg/kg b.i.d. IP group): 6.77 ± 0.51 g ethanol/kg/day
Ethanol Consumption, Mean ± s.e.m., during (male mHEP rat; 10.0 mg/kg b.i.d. IP): 3.50 ± 0.45 g ethanol/kg/day
Ethanol Consumption, Mean ± s.e.m., post- (male mHEP rat; 10.0 mg/kg b.i.d. IP): 4.15 ± 0.61 g ethanol/kg/day
effect on ethanol consumption during the post-treatment period (in words) (male mHEP rat; 10 mg/kg b.i.d., post-treatment period): significant carry over effect
Ethanol Consumption, Mean ± s.e.m., pre- (male mHEP rat; 20.0 mg/kg b.i.d. IP group): 5.26 ± 0.49 g ethanol/kg/day
Ethanol Consumption, Mean ± s.e.m., during (male mHEP rat; 20.0 mg/kg b.i.d. IP): 1.80 ± 0.28 g ethanol/kg/day
Ethanol Consumption, Mean ± s.e.m., post- (male mHEP rat; 20.0 mg/kg b.i.d. IP): 2.89 ± 0.45 g ethanol/kg/day
decrease in the proportion of alcohol consumed (volume of ethanol / total volume of ethanol solution and water) (male mHEP rat; 20 mg/kg b.i.d., after treatment): 41%
decrease in the proportion of alcohol consumed (volume of ethanol / total volume of ethanol solution and water) (male mHEP rat; 20 mg/kg b.i.d., during treatment): 62.3%
ethanol consumption depressed compared to the pre-treatment period (male mHEP rat; 20 mg/kg b.i.d., post-treatment period): 55.1%
decrease in ethanol consumption compared to the pre-treatment period (male mHEP rat; 20 mg/kg b.i.d., treatment period): 65.8%
amount of ethanol consumed (in words) (male mHEP rat; across doses, mHEP rat): strong dose-dependent decrease in consumption
volitional consumption of ethanol (in words) (male mHEP rat; dose range of 5.0 to 20 mg/kg b.i.d.): significantly reduced
proportion of ethanol consumed (in words) (male mHEP rat; mHEP rat): strong decrease
Bodyweight, Mean ± s.e.m., pre- ([5]; 2.5 mg/kg b.i.d. IP group): 0.369 ± 0.019 kg
Bodyweight, Mean ± s.e.m., during ([5]; 2.5 mg/kg b.i.d. IP): 0.372 ± 0.019 kg
Bodyweight, Mean ± s.e.m., post- ([5]; 2.5 mg/kg b.i.d. IP): 0.373 ± 0.019 kg
Bodyweight, Mean ± s.e.m., pre- ([5]; 5.0 mg/kg b.i.d. IP group): 0.392 ± 0.009 kg
Bodyweight, Mean ± s.e.m., during ([5]; 5.0 mg/kg b.i.d. IP): 0.394 ± 0.009 kg
Bodyweight, Mean ± s.e.m., post- ([5]; 5.0 mg/kg b.i.d. IP): 0.394 ± 0.007 kg
Bodyweight, Mean ± s.e.m., pre- ([5]; 10.0 mg/kg b.i.d. IP group): 0.381 ± 0.028 kg
Bodyweight, Mean ± s.e.m., during ([5]; 10.0 mg/kg b.i.d. IP): 0.381 ± 0.028 kg
Bodyweight, Mean ± s.e.m., post- ([5]; 10.0 mg/kg b.i.d. IP): 0.382 ± 0.028 kg
Bodyweight, Mean ± s.e.m., pre- ([5]; 20.0 mg/kg b.i.d. IP group): 0.421 ± 0.015 kg
Bodyweight, Mean ± s.e.m., during ([5]; 20.0 mg/kg b.i.d. IP): 0.423 ± 0.015 kg
Bodyweight, Mean ± s.e.m., post- ([5]; 20.0 mg/kg b.i.d. IP): 0.418 ± 0.015^a kg
body weight (in words) ([5]; treated rats, as expected for rats of this age): small increases in body weight
